From ChEMBL document CHEMBL2021890, “A new class of prolylcarboxypeptidase inhibitors, part 1: discovery and evaluation” (Bioorg Med Chem Lett, 2012)

Tests used:
[1] = Oral bioavailability in mouse at 1 mg/kg; assay type: ADME, organism-based; settings: in vivo
[2] = Ratio of drug level in brain to plasma in C57 mouse at 80 mg/kg, po after 20 hrs by LC/MS analysis; assay type: ADME, organism-based; parameters: dose 80 mg/kg, route oral; settings: read-out: BPR
[3] = Apparent permeability across pig LLC-PK1 cells at 1 uM; assay type: ADME, cell-based, Sus scrofa
Mus musculus [4] = experiment: Ex-vivo inhibition of PrCP in heat inactivated 100% plasma of po dosed mouse by FRET analysis; assay type: functional, organism-based
[5] = Half life in mouse at 0.5 mg/kg, iv and 1 mg/kg, po; assay type: ADME, organism-based; settings: in vivo
Mus musculus [6] = experiment: Ex-vivo inhibition of po dosed mouse PrCP in the absence of plasma by FRET analysis; assay type: functional, organism-based
[7] = Plasma protein binding in 10% human plasma assessed as percentage unbound; assay type: ADME, cell-free
Mus musculus [8] = experiment: Ex-vivo inhibition of PrCP in heat inactivated 100% plasma of C57 mouse assessed as target engagement at 80 mg/kg, po after 20 hrs by FRET analysis; assay type: functional
Mus musculus [9] = experiment: Dose normalized AUC in mouse at 1 mg/kg, po; assay type: ADME, organism-based; parameters: dose 1 mg/kg, route oral; settings: in vivo
[10] = Metabolic stability in human liver microsomes after 30 mins by LC/MS analysis; assay type: ADME, Microsome; settings: read-out: Stability
[11] = Volume of distribution in mouse at 0.5 mg/kg, iv and 1 mg/kg, po; assay type: ADME, organism-based; settings: in vivo
[12] = Drug uptake in C57 mouse plasma at 80 mg/kg, po after 20 hrs by LC/MS analysis; assay type: ADME, organism-based; parameters: dose 80 mg/kg, route oral
[13] = Plasma protein binding in 10% mouse plasma assessed as percentage unbound; assay type: ADME, cell-free
[14] = Metabolic stability in mouse liver microsomes after 30 mins by LC/MS analysis; assay type: ADME, Microsome; settings: read-out: Stability
[15] = Drug uptake in C57 mouse brain at 80 mg/kg, po after 20 hrs by LC/MS analysis; assay type: ADME, organism-based; parameters: dose 80 mg/kg, route oral; settings: read-out: Drug uptake
Mus musculus [16] = experiment: Ex-vivo inhibition of PrCP in heat inactivated 100% plasma of C57 mouse assessed as target engagement at 80 mg/kg, po after 20 hrs calculated as [cmpd]plasma/([cmpd]plasma + Ki (heat inactivated plasma))x100; assay type: functional
Mus musculus [17] = experiment: Ex-vivo inhibition of PrCP in heat inactivated 25% plasma of po dosed mouse by FRET analysis; assay type: functional, organism-based
[18] = Clearance in mouse at 0.5 mg/kg, iv and 1 mg/kg, po; assay type: ADME, organism-based; settings: in vivo
[19] = target: T1, Lysosomal Pro-X carboxypeptidase (Mus musculus, UniProt Q7TMR0); experiment: Inhibition of mouse PrCP
T1 sequence (Q7TMR0 whole entry): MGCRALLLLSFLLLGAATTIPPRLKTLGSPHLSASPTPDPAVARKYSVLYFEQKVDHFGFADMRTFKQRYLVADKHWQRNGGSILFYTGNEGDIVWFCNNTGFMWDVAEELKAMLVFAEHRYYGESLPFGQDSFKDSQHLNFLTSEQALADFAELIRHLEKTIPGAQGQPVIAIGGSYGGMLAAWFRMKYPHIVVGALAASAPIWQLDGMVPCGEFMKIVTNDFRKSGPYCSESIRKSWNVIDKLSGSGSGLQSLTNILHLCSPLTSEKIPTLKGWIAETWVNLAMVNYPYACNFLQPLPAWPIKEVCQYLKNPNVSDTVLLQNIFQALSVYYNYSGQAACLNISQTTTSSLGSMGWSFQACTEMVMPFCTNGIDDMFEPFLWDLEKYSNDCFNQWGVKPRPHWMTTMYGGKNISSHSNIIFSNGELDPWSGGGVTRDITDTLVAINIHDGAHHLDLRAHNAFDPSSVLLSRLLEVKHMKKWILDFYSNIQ

[20] = Oral bioavailability in mouse at 10 mg/kg; assay type: ADME, organism-based; settings: in vivo
[21] = Clearance in mouse at 2 mg/kg, iv and 10 mg/kg, po; assay type: ADME, organism-based; settings: in vivo
[22] = Volume of distribution in mouse at 2 mg/kg, iv and 10 mg/kg, po; assay type: ADME, organism-based; settings: in vivo
[23] = Half life in mouse at 2 mg/kg, iv and 10 mg/kg, po; assay type: ADME, organism-based; settings: in vivo
Mus musculus [24] = experiment: Dose normalized AUC in mouse at 10 mg/kg, po; assay type: ADME, organism-based; parameters: dose 10 mg/kg, route oral; settings: in vivo
[25] = Ratio of drug level in brain to plasma in C57 mouse at 30 mg/kg, po after 20 hrs by LC/MS analysis; assay type: ADME, organism-based; parameters: dose 30 mg/kg, route oral; settings: read-out: BPR
[26] = Drug uptake in C57 mouse plasma at 30 mg/kg, po after 20 hrs by LC/MS analysis; assay type: ADME, organism-based; parameters: dose 30 mg/kg, route oral
[27] = Drug uptake in C57 mouse brain at 30 mg/kg, po after 20 hrs by LC/MS analysis; assay type: ADME, organism-based; parameters: dose 30 mg/kg, route oral; settings: read-out: Drug uptake
Mus musculus [28] = experiment: Ex-vivo inhibition of PrCP in heat inactivated 100% plasma of C57 mouse assessed as target engagement at 30 mg/kg, po after 20 hrs calculated as [cmpd]plasma/([cmpd]plasma + Ki (heat inactivated plasma))x100; assay type: functional
Mus musculus [29] = experiment: Ex-vivo inhibition of PrCP in heat inactivated 100% plasma of C57 mouse assessed as target engagement at 30 mg/kg, po after 20 hrs by FRET analysis; assay type: functional
Mus musculus [30] = experiment: Ex-vivo inhibition of PrCP in heat inactivated 100% plasma of C57 mouse assessed as target engagement at 100 mg/kg, po after 20 hrs calculated as [cmpd]plasma/([cmpd]plasma + Ki (heat inactivated plasma))x100; assay type: functional
[31] = Ratio of apparent permeability from basolateral to apical side over apical to basolateral side in […] LLC cells expressing human MDR1 at 5 uM; assay type: ADME, cell-based
[32] = Apparent permeability across pig LLC-PK1 cells at 5 uM; assay type: ADME, cell-based, Sus scrofa
[33] = Drug uptake in C57 mouse plasma at 100 mg/kg, po after 20 hrs by LC/MS analysis; assay type: ADME, organism-based; parameters: dose 100 mg/kg, route oral
[34] = Ratio of apparent permeability from basolateral to apical side over apical to basolateral side in […] LLC cells expressing […] MDR1a at 5 uM; assay type: ADME, cell-based
Mus musculus [35] = experiment: Ex-vivo inhibition of PrCP in heat inactivated 100% plasma of C57 mouse assessed as target engagement at 100 mg/kg, po after 20 hrs by FRET analysis; assay type: functional
Mus musculus [36] = experiment: Plasma shift, ratio of Ki for PrCP in heat inactivated 100% plasma of po dosed mouse to Ki for po dosed mouse PrCP in the absence of plasma; assay type: functional
[37] = Drug uptake in C57 mouse brain at 100 mg/kg, po after 20 hrs by LC/MS analysis; assay type: ADME, organism-based; parameters: dose 100 mg/kg, route oral; settings: read-out: Drug uptake
[38] = Ratio of drug level in brain to plasma in C57 mouse at 100 mg/kg, po after 20 hrs by LC/MS analysis; assay type: ADME, organism-based; parameters: dose 100 mg/kg, route oral; settings: read-out: BPR
[39] = Ratio of drug level in brain to plasma in C57 mouse at 10 mg/kg, po after 20 hrs by LC/MS analysis; assay type: ADME, organism-based; parameters: dose 10 mg/kg, route oral; settings: read-out: BPR
[40] = Drug uptake in C57 mouse plasma at 10 mg/kg, po after 20 hrs by LC/MS analysis; assay type: ADME, organism-based; parameters: dose 10 mg/kg, route oral
Mus musculus [41] = experiment: Ex-vivo inhibition of PrCP in heat inactivated 100% plasma of C57 mouse assessed as target engagement at 10 mg/kg, po after 20 hrs calculated as [cmpd]plasma/([cmpd]plasma + Ki (heat inactivated plasma))x100; assay type: functional
[42] = Drug uptake in C57 mouse brain at 10 mg/kg, po after 20 hrs by LC/MS analysis; assay type: ADME, organism-based; parameters: dose 10 mg/kg, route oral; settings: read-out: Drug uptake
Mus musculus [43] = experiment: Ex-vivo inhibition of PrCP in heat inactivated 100% plasma of C57 mouse assessed as target engagement at 10 mg/kg, po after 20 hrs by FRET analysis; assay type: functional

Compound	bioavailability [1] [%]	Papp at 1 µM [3] [×10⁻⁶ cm/s]	Ki (Mus musculus [4]) [nM]	half-life [5] [h]	Ki (Mus musculus [6]) [nM]	fraction unbound [7]	AUC/dose (Mus musculus [9]) [µM·kg·h/mg]	remaining at 0.5 h [10] [%]	Vd [11] [L/kg]	fraction unbound [13]	remaining at 0.5 h [14] [%]	Ki (Mus musculus [17]) [nM]	clearance [18] [mL/min/kg]	IC50 [19] [nM]	concentration at 20 h [33] [nM]	concentration at 20 h [37] [nM]	Kp at 20 h [38]	inhibition in vivo at 100 mg/kg (Mus musculus [30]) [%]	inhibition in vivo at 100 mg/kg (Mus musculus [35]) [%]	other results
Cc1cc(C2CCN(C(=O)[C@@H]3CN(C(C)(C)C)C[C@H]3c3ccc(F)cc3F)CC2)n(-c2ccc(F)c(F)c2)n1	46	28	18.3	1.9	6.4	0.25	0.2	39	13	0.16	52	9.3	71	9.1	–	–	–	–	–	Kp at 20 h [2]: 0.63; inhibition in vivo at 80 mg/kg (Mus musculus [8]): 99.4%; concentration at 20 h [12]: 1910 nM; concentration at 20 h [15]: 1180 nM; inhibition in vivo at 80 mg/kg (Mus musculus [16]): 99.1%
Cc1nc(C2CCN(C(=O)[C@@H]3CN(C(C)(C)C)C[C@H]3c3ccc(F)cc3F)CC2)n(-c2ccc(Cl)c(C)c2)n1	–	–	1.4	–	1	0.16	–	11	–	0.13	22	1.1	–	10	–	–	–	–	–	bioavailability [20]: 20%; clearance [21]: 128 mL/min/kg; Vd [22]: 17 L/kg; half-life [23]: 1.8 h; AUC/dose (Mus musculus [24]): 0.05 µM·kg·h/mg
Cc1cc(C2CCN(C(=O)[C@@H]3CN(C(C)(C)C)C[C@H]3c3ccc(F)cc3F)CC2)n(-c2cc(Cl)ccc2Cl)n1	31	26.9	0.9	2.9	0.4	0.11	0.19	30	13	0.17	43	0.5	48	0.4	–	–	–	–	–	Kp at 20 h [25]: 1.35; concentration at 20 h [26]: 547 nM; concentration at 20 h [27]: 698 nM; inhibition in vivo at 30 mg/kg (Mus musculus [28]): 99.8%; inhibition in vivo at 30 mg/kg (Mus musculus [29]): 97.7%

More lines, in order of falling Ki (Mus musculus [4]), values ahead:

bioavailability [1] [%]	Papp at 1 µM [3] [×10⁻⁶ cm/s]	Ki (Mus musculus [4]) [nM]	half-life [5] [h]	Ki (Mus musculus [6]) [nM]	fraction unbound [7]	AUC/dose (Mus musculus [9]) [µM·kg·h/mg]	remaining at 0.5 h [10] [%]	Vd [11] [L/kg]	fraction unbound [13]	remaining at 0.5 h [14] [%]	Ki (Mus musculus [17]) [nM]	clearance [18] [mL/min/kg]	IC50 [19] [nM]	concentration at 20 h [33] [nM]	concentration at 20 h [37] [nM]	Kp at 20 h [38]	Compound	inhibition in vivo at 100 mg/kg (Mus musculus [30]) [%]	inhibition in vivo at 100 mg/kg (Mus musculus [35]) [%]	other results
–	–	16.3	–	0.7	–	–	–	–	–	–	4.6	–	–	3120	757	0.24	C[C@@H](c1ccc(-c2ccccc2)cc1)[C@H](NC(=O)C(C)(C)N)C(=O)N1CCC[C@H]1c1nc2cc(Cl)c(Cl)cc2[nH]1	99.5	97.2	Ratio [31]: 8; Papp at 5 µM [32]: 2.3 ×10⁻⁶ cm/s; Ratio [34]: 4.2; Ratio Ki (Mus musculus [36]): 23.3
18	28.8	1.4	3.1	0.5	0.18	0.05	4	22	0.16	3	0.7	121	0.3	1800	801	0.46	CC(C)(C)N1C[C@@H](C(=O)N2CCC(c3ccnn3-c3ccc(F)c(Cl)c3)CC2)[C@H](c2ccc(F)cc2F)C1	99.9	99.9	Kp at 20 h [39]: 0.11; concentration at 20 h [40]: 196 nM; inhibition in vivo at 10 mg/kg (Mus musculus [41]): 99.3%; concentration at 20 h [42]: 21 nM; inhibition in vivo at 10 mg/kg (Mus musculus [43]): 99.5%
